In US11530244B2, “Cyclic polypeptides for PCSK9 inhibition” (priority 2018, dated 2022) one finds IC50 data, which are given here for 19 compounds.

This experiment deals with human PCSK9 / human LDLR EGFa domain interaction (Homo sapiens (Human), UniProt Q8NBP7). The experiment can be described thus: TR-FRET assay of inhibition of the PCSK9-LDLR protein-protein interaction. It is filed as binding. To be noted: TR-FRET, 20 nM human PCSK9, 20 nM human LDLR EGFa domain, 2 hours room temperature; read-out: IC50. The method, then:
A time-resolved fluorescence resonance energy (TR-FRET) assay was used to measure inhibition of the PCSK9-LDLR protein-protein interaction. Briefly, 20 nM avitag-biotinylated human PCSK9 was incubated with 20 nM his-tagged human LDLR EGFa domain in the presence of 5 nM LANCE Ulight Streptavidin (Perkin Elmer) and 5 nM europium-Anti-6×His (Perkin Elmer) for 2 hours covered at room temperature in buffer containing 50 mM HEPES, 150 mM NaCl, 5 mM CaCl2), 0.01% BSA and 0.01% Surfactant P20. Compounds were tested in dose-response and concentrations giving half-maximal inhibition calculated using a 4-parameter fit equation.

Starred links: 1 amine or outer side, 2 acyl side, 3 side chain; linkers in the order of their positions; H or OH if unused. Positions of bridges follow the written chain, without caps; N, C: chain ends. Non-standard residues stand in square brackets, D forms with d. Residues, ends and D or L forms follow the SMILES beside them. Groups on a side chain read outwards from the residue. ξ: configuration not given here. *: point of attachment. Pro(trans-4-Ph) = O=C(O)[C@@H]1C[C@@H](c2ccccc2)CN1; X25 = O=C([C@H](Cc1cccc(OCC=[*:3])c1)N[*:1])[*:2]; X52 = O=C([C@H](Cc1cc2cc(F)ccc2[nH]1)N[*:1])[*:2]; Trp(5-F) = N[C@@H](Cc1c[nH]c2ccc(F)cc12)C(=O)O; Pro(3R-Ph) = O=C(O)[C@H]1NCC[C@@H]1c1ccccc1; NMePhe(4-F) = CN[C@@H](Cc1ccc(F)cc1)C(=O)O; X3 = O=C(CCSCc1cc(F)cc(CSCCN[*:1])c1)[*:2]; X42 = CN([C@@H](CCC=[*:3])C(=O)[*:2])[*:1]; NMeW = CN[C@@H](Cc1c[nH]c2ccccc12)C(=O)O; X4 = O=C(CCSCc1cccc(CSCCN[*:1])c1)[*:2]; γGlu = O=C(O)[C@H](CCC(=O)[*:2])N[*:1]; mXylylene = c1cc(C[*:1])cc(C[*:2])c1; NMeY = CN[C@@H](Cc1ccc(O)cc1)C(=O)O; X54 = c1cc2ccc(C[*:2])cc2cc1C[*:1]; Palmitoyl = CCCCCCCCCCCCCCCC(=O)*; ξAEF = NCCOc1ccc(CC(N)C(=O)O)cc1; αMeP = C[C@@]1(C(=O)O)CCCN1; NMeA = CN[C@@H](C)C(=O)O; Dab = NCC[C@H](N)C(=O)O; Nva = CCC[C@H](N)C(=O)O; Ac3c = NC1(C(=O)O)CC1; OBn = c1ccc(CO*)cc1; βAla = NCCC(=O)O; Mpa = O=C(O)CCS; Sar = CNCC(=O)O

human PCSK9 / human LDLR EGFa domain interaction, sequence (Q8NBP7 153-692): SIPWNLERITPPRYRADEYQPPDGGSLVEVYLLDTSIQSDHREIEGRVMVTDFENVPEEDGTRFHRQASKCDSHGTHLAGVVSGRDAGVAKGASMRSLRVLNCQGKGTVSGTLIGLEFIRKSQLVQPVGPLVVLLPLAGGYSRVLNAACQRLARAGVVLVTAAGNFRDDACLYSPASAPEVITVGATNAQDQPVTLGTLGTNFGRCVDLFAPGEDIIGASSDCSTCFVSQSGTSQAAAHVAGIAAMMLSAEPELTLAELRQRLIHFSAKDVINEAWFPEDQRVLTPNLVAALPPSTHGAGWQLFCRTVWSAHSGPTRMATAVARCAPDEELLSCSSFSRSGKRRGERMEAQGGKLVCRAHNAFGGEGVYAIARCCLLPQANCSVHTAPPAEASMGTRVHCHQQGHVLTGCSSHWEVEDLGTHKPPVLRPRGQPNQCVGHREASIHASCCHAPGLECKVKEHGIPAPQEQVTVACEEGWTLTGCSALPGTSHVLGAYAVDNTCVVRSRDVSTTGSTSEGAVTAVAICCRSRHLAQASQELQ
human PCSK9 / human LDLR EGFa domain interaction, sequence (Q8NBP7 31-152 partner): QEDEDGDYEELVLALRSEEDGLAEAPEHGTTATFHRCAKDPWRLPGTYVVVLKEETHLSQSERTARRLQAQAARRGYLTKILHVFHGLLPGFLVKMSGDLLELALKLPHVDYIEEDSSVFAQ

By IC50 is commonly meant the concentration that inhibits the measured activity by half. With `CC(=O)N[C@H]1CSCc2cccc(c2)CSC[C@@H](C(N)=O)NC(=O)[C@@H]2CCCN2C(=O)[C@H](Cc2ccc(O)cc2)NC(=O)[C@H](Cc2cnc[nH]2)NC(=O)[C@H](CC(=O)O)NC(=O)[C@H](Cc2c[nH]c3ccc(F)cc23)NC(=O)[C@H](Cc2c[nH]c3ccc(F)cc23)NC(=O)CNC(=O)[C@H](CCCCN)NC1=O` [Compound 148] (Ac-CKG[Trp(5-F)][Trp(5-F)]DHYPC-NH2; linker 1-10 via mXylylene), the IC50 is 100 to 1000 nM.
In the case of `NCCCC[C@@H]1NC(=O)CCCCCn2cc(nn2)CCC[C@@H](C(N)=O)NC(=O)[C@@H]2CCCN2C(=O)[C@H](Cc2ccc(O)cc2)NC(=O)[C@H](Cc2c[nH]cn2)NC(=O)[C@H](CC(=O)O)NC(=O)[C@H](Cc2c[nH]c3ccc(F)cc23)NC(=O)[C@H](Cc2c[nH]c3ccc(F)cc23)NC(=O)CNC1=O` [Compound 154] it was 1000 to 12100 nM.
In the case of `NCCCC[C@@H]1NC(=O)CCSCc2ccc3ccc(cc3c2)CSC[C@@H](C(N)=O)NC(=O)[C@@H]2CCCN2C(=O)[C@H](Cc2ccc(O)cc2)NC(=O)[C@H](Cc2c[nH]cn2)NC(=O)[C@H](CC(=O)O)NC(=O)[C@H](Cc2c[nH]c3ccc(F)cc23)NC(=O)[C@H](Cc2c[nH]c3ccc(F)cc23)NC(=O)CNC1=O` [Compound 206] ([Mpa]KG[Trp(5-F)][Trp(5-F)]DHYPC-NH2; linker 1-10 via X54) it was 21000 to 50000 nM; in that of `CC(=O)N[C@@H]1CC(=O)NCCOc2ccc(cc2)CC(C(N)=O)NC(=O)[C@]2(C)CCCN2C(=O)[C@H](Cc2ccc(O)cc2)NC(=O)[C@H](Cc2cnc[nH]2)NC(=O)[C@H](CC(=O)OCc2ccccc2)NC(=O)[C@H](Cc2c[nH]c3ccc(F)cc23)NC(=O)[C@H](Cc2c[nH]c3ccc(F)cc23)NC(=O)CNC1=O` (stereo partly shown) [Compound 321] (Ac-[dD]G[Trp(5-F)][Trp(5-F)]D(OBn)HY[αMeP][ξAEF]-NH2; lactam 1-9), 100 to 1000 nM.
In the case of `CC(=O)N[C@H]1CSCc2cccc(c2)CSC[C@@H](C(N)=O)NC(=O)[C@@H]2CCCN2C(=O)[C@H](Cc2ccc(O)cc2)NC(=O)[C@H](Cc2cnc[nH]2)NC(=O)[C@H](CC(=O)O)NC(=O)[C@H](Cc2c[nH]c3ccccc23)NC(=O)[C@H](Cc2c[nH]c3ccc(F)cc23)NC(=O)CNC(=O)[C@H](CCCCN)NC1=O` [Compound 177] (Ac-CKG[Trp(5-F)]WDHYPC-NH2; linker 1-10 via mXylylene) it was 21000 to 50000 nM; in that of `COc1ccc(C[C@@H]2NC(=O)[C@H]([C@@H](C)OC)NC(=O)[C@@H]3CC/C=C/COc4cccc(c4)C[C@H](NC(=O)[C@@H](C)NC(=O)[C@H](C)NC(=O)CCSCc4cc(F)cc(c4)CSCCNC(=O)[C@]4(C)CCCN4C2=O)C(=O)N[C@@H](Cc2c[nH]c4ccc(F)cc24)C(=O)N3C)cc1` [Compound 504] (cyclo(A[dA][X25][Trp(5-F)][X42]T(Me)Y(Me)[αMeP][X3]); staple (E) 3-5), 100 to 1000 nM.
As for `C[C@@H]1NC(=O)CCSCc2cccc(c2)CSC[C@@H](C(N)=O)NC(=O)[C@]2(C)CCCN2C(=O)[C@H](Cc2ccc(O)cc2)NC(=O)[C@H](Cc2cnc[nH]2)NC(=O)[C@H](CC(=O)O)NC(=O)[C@H](Cc2c[nH]c3ccc(F)cc23)NC(=O)[C@H](Cc2c[nH]c3ccc(F)cc23)NC(=O)CNC1=O` [Compound 308] ([Mpa]AG[Trp(5-F)][Trp(5-F)]DHY[αMeP]C-NH2; linker 1-10 via mXylylene), the IC50 is 1000 to 12100 nM.
In the case of `CC(=O)N(C)[C@@H](Cc1ccc(F)cc1)C(=O)N[C@H]1CSCc2cccc(c2)CSC[C@@H](C(N)=O)NC(=O)[C@@H]2CCCN2C(=O)[C@H](Cc2ccc(O)cc2)NC(=O)[C@H](Cc2cnc[nH]2)NC(=O)[C@H](CC(=O)O)NC(=O)[C@H](Cc2c[nH]c3ccc(F)cc23)NC(=O)[C@H](Cc2c[nH]c3ccc(F)cc23)NC(=O)CNC(=O)[C@H](CCCCN)NC1=O` [Compound 147] (Ac-[NMePhe(4-F)]CKG[Trp(5-F)][Trp(5-F)]DHYPC-NH2; linker 2-11 via mXylylene) it was 100 to 1000 nM; in that of `COc1ccc(C[C@@H]2NC(=O)CCNC(=O)[C@@H]3CCCN3C(=O)[C@H](Cc3c[nH]c4ccc(F)cc34)NC(=O)[C@H](Cc3cc4cc(F)ccc4[nH]3)NC(=O)[C@@H](C)NC(=O)[C@H](CCCCN)NC(=O)CCSCc3cccc(c3)CSCCNC(=O)[C@]3(C)CCCN3C2=O)cc1` [Compound 003] (cyclo(K[dA][X52][Trp(5-F)]P[βAla]Y(Me)[αMeP][X4])), 1000 to 12100 nM; in that of `CCCCCCCCCCCCCCCC(=O)N[C@@H](CCC(=O)N[C@@H](CCC(=O)NCC[C@H](NC(=O)[C@@H]1CSCc2cccc(c2)CSCCC(=O)N[C@@H](CCCCN)C(=O)NCC(=O)N[C@@H](Cc2c[nH]c3ccc(F)cc23)C(=O)N[C@@H](Cc2c[nH]c3ccc(F)cc23)C(=O)N[C@@H](CC(=O)O)C(=O)N[C@@H](Cc2c[nH]cn2)C(=O)N[C@@H](Cc2ccc(O)cc2)C(=O)N2CCC[C@@]2(C)C(=O)N1)C(N)=O)C(=O)O)C(=O)O` [Compound 284] ([Mpa]KG[Trp(5-F)][Trp(5-F)]DHY[αMeP]C[Dab]([γGlu-γGlu-Palmitoyl])-NH2; linker 1-10 via mXylylene), 21000 to 50000 nM.
In the case of `NCCCC[C@@H]1NC(=O)CCSCc2cccc(c2)CSC[C@@H](C(N)=O)NC(=O)[C@@H]2CCCN2C(=O)[C@@H]2[C@@H](c3ccccc3)CCN2C(=O)[C@H](Cc2c[nH]cn2)NC(=O)[C@H](CC(=O)O)NC(=O)[C@H](Cc2c[nH]c3ccc(F)cc23)NC(=O)[C@H](Cc2c[nH]c3ccc(F)cc23)NC(=O)CNC1=O` [Compound 326] ([Mpa]KG[Trp(5-F)][Trp(5-F)]DH[Pro(3R-Ph)]PC-NH2; linker 1-10 via mXylylene) it was 1000 to 12100 nM; in that of `CC(=O)N[C@@H](Cc1cnc[nH]1)C(=O)N(C)[C@@H](Cc1ccc(F)cc1)C(=O)N[C@H]1CSCc2cccc(c2)CSC[C@@H](C(N)=O)NC(=O)[C@@H]2CCCN2C(=O)[C@H](Cc2ccc(O)cc2)NC(=O)[C@H](Cc2cnc[nH]2)NC(=O)[C@H](CC(=O)O)NC(=O)[C@H](Cc2c[nH]c3ccc(F)cc23)NC(=O)[C@H](Cc2c[nH]c3ccc(F)cc23)NC(=O)CNC(=O)[C@H](CCCCN)NC1=O` [Compound 146] (Ac-H[NMePhe(4-F)]CKG[Trp(5-F)][Trp(5-F)]DHYPC-NH2; linker 3-12 via mXylylene), 0.1 to 100 nM.
In the case of `NCCCC[C@@H]1NC(=O)CCSCc2cccc(c2)CSC[C@@H](C(N)=O)NC(=O)[C@@H]2C[C@@H](c3ccccc3)CN2C(=O)[C@H](Cc2ccc(O)cc2)NC(=O)[C@H](Cc2c[nH]cn2)NC(=O)[C@H](CC(=O)O)NC(=O)[C@H](Cc2c[nH]c3ccc(F)cc23)NC(=O)[C@H](Cc2c[nH]c3ccc(F)cc23)NC(=O)CNC1=O` [Compound 293] ([Mpa]KG[Trp(5-F)][Trp(5-F)]DHY[Pro(trans-4-Ph)]C-NH2; linker 1-10 via mXylylene) it was 0.1 to 100 nM; in that of `NCCCC[C@@H]1NC(=O)CCCCn2cc(nn2)CC[C@@H](C(N)=O)NC(=O)[C@@H]2CCCN2C(=O)[C@H](Cc2ccc(O)cc2)NC(=O)[C@H](Cc2c[nH]cn2)NC(=O)[C@H](CC(=O)O)NC(=O)[C@H](Cc2c[nH]c3ccc(F)cc23)NC(=O)[C@H](Cc2c[nH]c3ccc(F)cc23)NC(=O)CNC1=O` [Compound 185], 0.1 to 100 nM; in that of `CCC[C@H](NC(C)=O)C(=O)N[C@@H](Cc1c[nH]cn1)C(=O)N(C)[C@@H](Cc1ccc(F)cc1)C(=O)N[C@H]1CSCc2cccc(c2)CSC[C@@H](C(N)=O)NC(=O)[C@@H]2CCCN2C(=O)[C@H](Cc2ccc(O)cc2)NC(=O)[C@H](Cc2c[nH]cn2)NC(=O)[C@H](CC(=O)O)NC(=O)[C@H](Cc2c[nH]c3ccc(F)cc23)NC(=O)[C@H](Cc2c[nH]c3ccc(F)cc23)NC(=O)CNC(=O)[C@H](CCCCN)NC1=O` [Compound 143] (Ac-[Nva]H[NMePhe(4-F)]CKG[Trp(5-F)][Trp(5-F)]DHYPC-NH2; linker 4-13 via mXylylene), 21000 to 50000 nM.
In the case of `NCCCC[C@@H]1NC(=O)CCSCc2cccc(c2)CSC[C@@H](C(N)=O)NC(=O)C2(CC2)NC(=O)[C@H](Cc2ccc(O)cc2)NC(=O)[C@H](Cc2c[nH]cn2)NC(=O)[C@H](CC(=O)O)NC(=O)[C@H](Cc2c[nH]c3ccc(F)cc23)NC(=O)[C@H](Cc2c[nH]c3ccc(F)cc23)NC(=O)CNC1=O` [Compound 195] ([Mpa]KG[Trp(5-F)][Trp(5-F)]DHY[Ac3c]C-NH2; linker 1-10 via mXylylene), the IC50 is 21000 to 50000 nM.
In the case of `C[C@H]1C(=O)N(C)[C@@H](Cc2ccc(O)cc2)C(=O)N2CCC[C@H]2C(=O)N[C@H](C(N)=O)CSCc2cccc(c2)CSCCC(=O)N[C@@H](CCCCN)C(=O)N(C)CC(=O)N(C)[C@@H](Cc2c[nH]c3ccccc23)C(=O)N[C@@H](Cc2c[nH]c3ccccc23)C(=O)N[C@@H](CC(=O)O)C(=O)N1C` [Compound 015] ([Mpa]K[Sar][NMeW]WD[NMeA][NMeY]PC-NH2; linker 1-10 via mXylylene) it was 1000 to 12100 nM.
In the case of `NCCCC[C@@H]1NC(=O)CCSCc2cccc(c2)CSC[C@@H](C(N)=O)NC(=O)[C@@H]2CCCN2C(=O)[C@H](Cc2ccc(O)cc2)NC(=O)[C@@H](Cc2cnc[nH]2)NC(=O)[C@H](CC(=O)O)NC(=O)[C@H](Cc2c[nH]c3ccc(F)cc23)NC(=O)[C@H](Cc2c[nH]c3ccc(F)cc23)NC(=O)CNC1=O` [Compound 163] ([Mpa]KG[Trp(5-F)][Trp(5-F)]D[dH]YPC-NH2; linker 1-10 via mXylylene) it was 21000 to 50000 nM; in that of `COc1ccc(C[C@@H]2NC(=O)[C@@H]3CCCC/C=C/CO[C@H]4C[C@@H](C(=O)N3)N(C4)C(=O)[C@H](Cc3c[nH]c4ccc(F)cc34)NC(=O)[C@H](Cc3c[nH]c4ccc(F)cc34)NC(=O)[C@@H](C)NC(=O)[C@H](CCCCN)NC(=O)CCSCc3cccc(c3)CSC[C@@H](C(N)=O)NC(=O)[C@]3(C)CCCN3C2=O)cc1` [Compound 508], 100 to 1000 nM.
